This note sets out measurements from patent publication US20260103709A1, “C-MYC-TARGETING CHARGE-ALTERING RELEASABLE TRANSPORTERS AS ANTI-TUMOR AGENTS FOR BREAST CANCER THERAPY” (The Board of Trustees of the Leland Stanford Junior …, priority 2022, published 2026).

pIC50: −log10 of the molar value.

Assay [1] deals with murine cell lines M1011, M158, and 4T1. The experiment in a line: JQ1 cell viability IC50, murine TNBC cell lines (CellTiter Glo). The assay is classed as cell-based, mouse. The note with it: 24 hour treatment, range over murine TNBC cell lines. On the procedure:
(§1) The specificity and dependence of CART siMYC's inhibitory effect on Myc or MYC levels in murine or human TNBC cells, respectively, was evaluated next. […] A number of different murine and human TNBC cell lines expressing high (murine cells: M158, M1011, and 4T1; and human cells: MDA-MB-231 and MDA-MB-436) or low MYC levels (human cell: BT20) were evaluated. […] The viability of M1011 and 4T1 cells was reduced by 25% upon treatment with CART siMYC but not with CARTs alone or with CART siLUC (FIG. 4B, FIG. 4C). In human TNBC cells, treatment with a human MYC-targeting siRNA (SEQ ID NO: 1) reduced viability by 35% or 22% in MDA-MB-231 or MDA-MB-436 cells, respectively (FIG. 4D, FIG. 4E). […] We conclude that CART siMYC is effective against TNBC cells expressing high, but not low, MYC levels and that the breadth of its therapeutic effects is dependent on cellular MYC levels.
(§2) […] 96-well plates were rocked for 5 minutes at room temperature, 100 μl from each well were transferred to a white opaque 96-well plate and luminescence was read using a SpectraMax Paradigm Multi-Mode Detection Platform plate reader (Molecular Devices).

For assay [2], the system named is human cell lines MDA-MB-436, MDA-MB-231, and BT20. The experiment in a line: JQ1 cell viability IC50, human TNBC cell lines (CellTiter Glo). The assay is classed as cell-based. The note with it: 24 hour treatment, range over human TNBC cell lines. The protocol:
as §1, §2

The test system of assay [3] is BT20 cells. Kind of assay: Cell viability after CART with human MYC siRNA, BT20 (low MYC). The note with it: JQ1 at the concentrations used for pre-treatment. The assay is classed as cell-based. On the procedure:
FIG. 4A to FIG. 4F: CART siMYC decreases cell viability in cells expressing high levels of Myc. […] Error bars represent SEM. Significance was taken at P<0.05 (*), P<0.01 (**), and P<0.005 (***). ns=not significant.
The specificity and dependence of CART siMYC's inhibitory effect on Myc or MYC levels in murine or human TNBC cells, respectively, was evaluated next. […] A number of different murine and human TNBC cell lines expressing high (murine cells: M158, M1011, and 4T1; and human cells: MDA-MB-231 and MDA-MB-436) or low MYC levels (human cell: BT20) were evaluated. […] The viability of M1011 and 4T1 cells was reduced by 25% upon treatment with CART siMYC but not with CARTs alone or with CART siLUC (FIG. 4B, FIG. 4C). In human TNBC cells, treatment with a human MYC-targeting siRNA (SEQ ID NO: 1) reduced viability by 35% or 22% in MDA-MB-231 or MDA-MB-436 cells, respectively (FIG. 4D, FIG. 4E). […]
Plates were incubated for 48 hours and upon treatment completion, a CellTiTer Glow assay was performed according to manufacturer's instructions (Promega). 96-well plates were rocked for 5 minutes at room temperature, 100 μl from each well were transferred to a white opaque 96-well plate and luminescence was read using a SpectraMax Paradigm Multi-Mode Detection Platform plate reader (Molecular Devices).

Take `Cc1sc2c(c1C)C(c1ccc(Cl)cc1)=N[C@@H](CC(=O)OC(C)(C)C)c1nnc(C)n1-2` [JQ1]: the figures for the pIC50 in assay [1] and in assay [2] were 6.14 to 6.52 and 4.49 to 5.15, respectively. Besides, in assay [3], the “effect of JQ1 on BT20 cells” value is “not significantly affected”.
